This passage reports IC50 results from patent US11542492B2 (Celgene CAR LLC, priority 2009, dated 2023).

Bounds are passed on as bounds.

T2 sequence (P26663 1658-1711): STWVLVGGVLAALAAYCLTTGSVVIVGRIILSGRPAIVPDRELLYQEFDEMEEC
T2 sequence (P26663 1027-1657): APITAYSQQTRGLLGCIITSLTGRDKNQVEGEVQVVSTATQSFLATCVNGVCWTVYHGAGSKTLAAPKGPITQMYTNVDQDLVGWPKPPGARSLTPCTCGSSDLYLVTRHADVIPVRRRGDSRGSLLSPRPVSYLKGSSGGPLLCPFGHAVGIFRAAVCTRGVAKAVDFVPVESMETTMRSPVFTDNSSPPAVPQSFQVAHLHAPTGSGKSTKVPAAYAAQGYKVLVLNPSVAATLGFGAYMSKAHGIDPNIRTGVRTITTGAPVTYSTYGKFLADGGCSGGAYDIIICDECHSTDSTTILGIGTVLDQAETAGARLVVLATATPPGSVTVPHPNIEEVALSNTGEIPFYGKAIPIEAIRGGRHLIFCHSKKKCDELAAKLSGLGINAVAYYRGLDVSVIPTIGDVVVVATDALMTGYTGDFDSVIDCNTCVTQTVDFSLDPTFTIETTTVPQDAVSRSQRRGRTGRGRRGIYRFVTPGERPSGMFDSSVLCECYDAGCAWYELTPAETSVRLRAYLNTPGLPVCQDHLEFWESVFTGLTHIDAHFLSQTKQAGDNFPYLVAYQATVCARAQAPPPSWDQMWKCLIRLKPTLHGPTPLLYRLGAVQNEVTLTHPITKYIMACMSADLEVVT

The first assay has as its target T1, PDPK1 (Homo sapiens, UniProt O15530).
T1 sequence (O15530 1-556): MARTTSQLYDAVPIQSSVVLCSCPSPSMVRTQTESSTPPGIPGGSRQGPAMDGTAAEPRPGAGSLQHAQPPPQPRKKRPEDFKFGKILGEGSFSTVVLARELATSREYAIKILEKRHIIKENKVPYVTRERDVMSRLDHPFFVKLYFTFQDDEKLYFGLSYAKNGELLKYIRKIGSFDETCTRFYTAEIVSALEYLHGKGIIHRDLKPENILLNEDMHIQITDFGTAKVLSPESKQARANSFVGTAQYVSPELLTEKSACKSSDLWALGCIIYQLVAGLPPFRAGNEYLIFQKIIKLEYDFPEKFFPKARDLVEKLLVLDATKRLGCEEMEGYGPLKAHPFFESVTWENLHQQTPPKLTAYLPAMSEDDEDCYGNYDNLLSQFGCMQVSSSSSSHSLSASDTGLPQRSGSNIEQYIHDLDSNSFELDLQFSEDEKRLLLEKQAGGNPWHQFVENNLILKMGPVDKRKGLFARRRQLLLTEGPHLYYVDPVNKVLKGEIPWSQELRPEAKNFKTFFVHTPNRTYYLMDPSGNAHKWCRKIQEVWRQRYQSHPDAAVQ
Nature of the assay: PDK1-OMNIA kinase assay (ST28-Sox peptide). The format is biochemical. Further details: purchased Invitrogen, BPS or SignalChem P3001 (Invitrogen), 40080 (BPS), P14-10H (SignalChem). Conditions: PDPK1 enzyme pre-incubated 30 min at 25° C. with compound; [ATP]=5 μM; ST28-Sox peptide substrate; read-out: Inhibition/Modification Designation (IC50, PDK1-OMNIA). The method, then: Briefly, a 10× stock of PDPK1 enzyme from Invitrogen (P3001) or BPS (40080) or SignalChem (P14-10H), 1.13×ATP (AS001A) and ST28-Sox peptide substrate (KNZ1281C) were prepared in 1× kinase reaction buffer consisting of 20 mM Tris, pH 7.5, 5 mM MgCl2, 1 mM EGTA, 5 mM β-glycerophosphate, 5% glycerol (10× stock, KB002A) and 0.2 mM DTT (DS001A). 5 μL of enzyme were pre-incubated in a Corning (#3574) 384-well, white, non-binding surface microtiter plate (Corning, N.Y.) for 30 min at 25° C. with a 0.5 μL volume of 50% DMSO and serially diluted compounds prepared in 50% DMSO. Kinase reactions were started with the addition of 45 […] of the ST28-Sox peptide substrate and monitored every 71 seconds for 30-60 minutes at λex360/λem485 in a Synergy4 plate reader from BioTek (Winooski, Vt.). At the conclusion of each assay, progress curves from each well were examined for linear reaction kinetics and fit statistics (R^2, 95% confidence interval, absolute sum of squares). Post-lag velocity (+10 minutes to 20+ minutes) from each reaction was estimated from the slope of a plot of relative fluorescence units vs time (minutes) and normalized to the no enzyme and no inhibitor control groups for % Inhibition. The resulting inhibition values were then plotted against inhibitor concentration to estimate IC50 from log [Inhibitor] vs Response, Variable Slope model in GraphPad Prism from GraphPad Software (San Diego, Calif.).
[Reagent] used in provisional protocol(s): Invitrogen—[PDPK1]=5-10 nM, [ATP]=5 μM and [ST28-Sox]=5 μM or 10 μM (ATP KMapp=4-6 μM); BPS—[PDPK1]=10-15 nM, [ATP]=5 μM and [ST28-Sox]=10 μM (ATP KMapp=3-5 μM); SignalChem—[PDPK1]=5-10 nM, [ATP]=5 μM and [ST28-Sox]=5 μM or 10 μM (ATP KMapp ND)
As for `CC(C)(C(N)=O)C(=O)NCCCNc1nc(Nc2cccc(NC(=O)[C@H]3CCC(=O)O3)c2)ncc1Br` [XI-50], the IC50 was in the range of 0.01 to 0.1 µM. `CC(C)(C(N)=O)C(=O)NCCCNc1nc(Nc2cccc(NC(=O)CC(N)C(=O)N3C[C@H]4C[C@@H]3C(=O)O4)c2)ncc1Br` (stereo partly shown) [XI-33]: the IC50 fell in the range of 0.01 to 0.1 µM.

With `CON1C[C@H](NC(=O)CCC(=O)Nc2cccc(Nc3ncc(Br)c(NCCCNC(=O)C(C)(C)C(N)=O)n3)c2)C1=O` [XI-47], the IC50 is less than 0.01 µM. Take `CC(C)(C(N)=O)C(=O)NCCCNc1nc(Nc2cccc(NC(=O)CCC(=O)Oc3ccccc3)c2)ncc1Br` [XI-25]: the IC50 was less than 0.01 µM. Consider `CC(C)(C(N)=O)C(=O)NCCCNc1nc(Nc2cccc(NC(=O)CC(NC(=O)CCCC(=O)NCCCOCCOCCOCCCNC(=O)CCCC[C@@H]3SC[C@@H]4NC(=O)N[C@@H]43)C(=O)N3C[C@H]4C[C@@H]3C(=O)O4)c2)ncc1Br` (stereo partly shown) [XI-56], for which the IC50 lay in the range of 0.1 to 1 µM. In the case of `CC(C)(C(N)=O)C(=O)NCCCNc1nc(Nc2cccc(NC(=O)CNC(=O)C3CCSC3=O)c2)ncc1Br` (stereo not shown) [XI-24], the IC50 lay in the range of 0.01 to 0.1 µM. Turning to `CC(C)(C(N)=O)C(=O)NCCCNc1nc(Nc2ccc(NC(=O)[C@@H]3CCC(=O)O3)cc2)ncc1Br` [XI-43], the IC50 lay within 0.1 to 1 µM.

Consider `CC1(C)OC2C(=O)CC(C(=O)NCC(=O)Nc3cccc(Nc4ncc(Br)c(NCCCNC(=O)C(C)(C)C(N)=O)n4)c3)C2O1` (stereo not shown) [XI-32], for which the IC50 was 0.1 to 1 µM. Turning to `C=CC(=O)NCC(=O)Nc1cccc(Nc2ncc(Br)c(NCCCNC(=O)C(C)(C)C(N)=O)n2)c1` [XI-31], the IC50 lay in the range of 0.01 to 0.1 µM.

For the compound `CC(C)(C(N)=O)C(=O)NCCCNc1nc(Nc2cccc(CCC(=O)N3C[C@H]4C[C@@H]3C(=O)O4)c2)ncc1Br` [XI-45], the IC50 is 0.01 to 0.1 µM. With `CC(C)(C(N)=O)C(=O)NCCCNc1nc(Nc2cccc(NC(=O)[C@@H]3CCC(=O)O3)c2)ncc1Br` [XI-52], the IC50 lay in the range of 0.01 to 0.1 µM. Consider `COC1=CC(=O)CC(C(=O)Nc2cccc(Nc3ncc(Br)c(NCCCNC(=O)C(C)(C)C(N)=O)n3)c2)C1` (stereo not shown) [XI-30], for which the IC50 was 0.01 to 0.1 µM. For the compound `CC(C)(C(N)=O)C(=O)NCCCNc1nc(Nc2cccc(N3C(=O)CCC3=O)c2)ncc1Br` [XI-46], the IC50 was in the range of 0.01 to 0.1 µM. For the compound `CC(C)(C(N)=O)C(=O)NCCCNc1nc(Nc2cccc(NC(=O)CCC(=O)N3C[C@@H]4CC3C(=O)O4)c2)ncc1Br` [XI-48], the IC50 was less than 0.01 µM. `CC(C)(C(N)=O)C(=O)NCCCNc1nc(Nc2cccc(CCC(=O)N3C[C@@H]4C[C@H]3C(=O)O4)c2)ncc1Br` [XI-44]: the IC50 is 0.01 to 0.1 µM. For `CC(C)(C(N)=O)C(=O)NCCCNc1nc(Nc2cccc(NC(=O)CNC(=O)[C@@H]3CCC(=O)O3)c2)ncc1Br` [XI-37], the IC50 is 0.01 to 0.1 µM. For `CC(C)(C(N)=O)C(=O)NCCCNc1nc(Nc2cccc(NC(=O)C3CC(=O)CC(=O)C3)c2)ncc1Br` [XI-29], the IC50 was in the range of 0.01 to 0.1 µM. On the same count and under the same terms, then `CC(C)(C(N)=O)C(=O)NCCCNc1nc(Nc2ccc(CCC(=O)N3C[C@@H]4C[C@H]3C(=O)O4)cc2)ncc1Br` [XI-41], with less than 0.01 µM.

`CC(C)(C(N)=O)C(=O)NCCCNc1nc(Nc2ccc(CCC(=O)N3C[C@H]4C[C@@H]3C(=O)O4)cc2)ncc1Br` [XI-40]: the IC50 is less than 0.01 µM. On to `CC(C)(C(N)=O)C(=O)NCCCNc1nc(Nc2cccc(NC(=O)CCC(=O)NC3CCSC3=O)c2)ncc1Br` (stereo not shown) [XI-34], for which the IC50 lay in the range of 0.01 to 0.1 µM. As to `CC(C)(C(N)=O)C(=O)NCCCNc1nc(Nc2cccc(NC(=O)c3ccc4c(c3)CCC(=O)O4)c2)ncc1Br` [XI-36], the IC50 lay in the range of 0.01 to 0.1 µM. On to `CC(C)(C(N)=O)C(=O)NCCCNc1nc(Nc2cccc(NC(=O)CCC(=O)N3CCC3=O)c2)ncc1Br` [XI-55], for which the IC50 was less than 0.01 µM. For `CC(C)(C(N)=O)C(=O)NCCCNc1nc(Nc2ccc(NC(=O)[C@H]3CCC(=O)O3)cc2)ncc1Br` [XI-42], the IC50 is 0.01 to 0.1 µM.

As to `CC(C)(C(N)=O)C(=O)NCCCNc1nc(Nc2cccc(NC(=O)C3CCSC3=O)c2)ncc1Br` (stereo not shown) [XI-23], the IC50 fell in the range of 0.01 to 0.1 µM.

Another assay concerns the target T2, HCV NS3/4A 1b protease enzyme (wild type) (Hepatitis C virus genotype 1b, UniProt P26663).
T2 construct: 10× stocks of NS3/4A protease enzyme from Bioenza (Mountain View, Calif.); purchased Bioenza
Nature of the assay: HCV protease FRET assay (IC50_APP), wild type NS3/4A 1b. The format is biochemical.
Details: not given
As to the method: HCV Protease FRET Assay for WT and Mutated NS3/4A 1b Enzymes (IC50_APP).
The following protocol was used to generate “apparent” IC50 (IC50_APP) values as depicted in Table 6, below. Without wishing to be bound by any particular theory, it is believed that IC50_APP, contrasted with IC50 values, may provide a more useful indication of time-dependent inhibition, and are thus more representative of binding affinity. […] 5 μL of each enzyme were added to Corning (#3575) 384-well, black, microtiter plates (Corning, N.Y.) after spotting a 0.5 μL volume of 50% DMSO and serially diluted compounds prepared in 50% DMSO. Protease reactions were immediately started after enzyme addition with the addition of 45 μL of the FRET substrate and monitored for 60-90 minutes at λex485/λem520 in a Synergy plate reader from BioTek (Winooski, Vt.). At the conclusion of each assay, progress curves from each well were examined for linear reaction kinetics and fit statistics (R^2, 95% confidence intervals, absolute sum of squares). Initial velocity (0 minutes to 15+ minutes) from each reaction was determined from the slope of a plot of relative fluorescence units vs time (minutes) and then plotted against inhibitor concentration as a percent of the no inhibitor and no enzyme controls to estimate apparent IC50 from log [Inhibitor] vs Response. (Variable Slope model in GraphPad Prism from GraphPad Software (San Diego, Calif.).)
For the compound `C=C[C@@H]1C[C@]1(NC(=O)[C@@H]1CC(OC(=O)N2Cc3cccc(F)c3C2)CN1C(=O)CNC(=O)[C@@H]1CCC(=O)O1)C(=O)NS(=O)(=O)C1CC1` (stereo partly drawn) [XVI-13, (5S)-5-((1R,2S)-1-(cyclopropylsulfonylcarbamoyl)-2-vinylcyclopropylcarbamoyl)-1-(2-((S)-5-oxotetrahydrofuran-2-carboxamido)acetyl)pyrrolidin-3-yl 4-fluoroisoindoline-2-carboxylate], the IC50 lay in the range of 0.1 to 1 µM. Regarding `C=C[C@@H]1C[C@]1(NC(=O)[C@@H]1CC(OC(=O)N2Cc3cccc(F)c3C2)CN1C(=O)[C@H](CN(C)C(=O)[C@H]1CCC(=O)O1)NC(=O)OC(C)(C)C)C(=O)NS(=O)(=O)C1CC1` (stereo partly drawn) [XVI-18, (5S)-1-((S)-2-(tert-butoxycarbonylamino)-3-((R)-N-methyl-5-oxotetrahydrofuran-2-carboxamido)propanoyl)-5-((1R,2S)-1-(cyclopropylsulfonylcarbamoyl)-2-vinylcyclopropylcarbamoyl)pyrrolidin-3-yl 4-fluoroisoindoline-2-carboxylate], the IC50 was 0.001 to 0.01 µM. Same read-out and setting: then `C=C[C@@H]1C[C@]1(NC(=O)[C@@H]1CC(OC(=O)N2Cc3cccc(F)c3C2)CN1C(=O)[C@H](CNC(=O)[C@@H]1CCC(=O)O1)NC(=O)OC(C)(C)C)C(=O)NS(=O)(=O)C1CC1` (stereo partly drawn) [XVI-21, (5S)-1-((S)-2-(tert-butoxycarbonylamino)-3-((S)-5-oxotetrahydrofuran-2-carboxamido)propanoyl)-5-((1R,2S)-1-(cyclopropylsulfonylcarbamoyl)-2-vinylcyclopropylcarbamoyl)pyrrolidin-3-yl 4-fluoroisoindoline-2-carboxylate], with 0.001 to 0.01 µM; and `C=C[C@@H]1C[C@]1(NC(=O)[C@@H]1CC(OC(=O)N2Cc3cccc(F)c3C2)CN1C(=O)[C@H](CN(C)C(=O)[C@@H]1CCC(=O)O1)NC(=O)OC(C)(C)C)C(=O)NS(=O)(=O)C1CC1` (stereo partly drawn) [XVI-19, (5S)-1-((S)-2-(tert-butoxycarbonylamino)-3-((S)-N-methyl-5-oxotetrahydrofuran-2-carboxamido)propanoyl)-5-((1R,2S)-1-(cyclopropylsulfonylcarbamoyl)-2-vinylcyclopropylcarbamoyl)pyrrolidin-3-yl 4-fluoroisoindoline-2-carboxylate], with 0.001 to 0.01 µM.
